Where a name gives a salt, the structure may show the parent alone.

The values below come from US10729710B2, “Catecholamine prodrugs for use in the treatment of Parkinson's disease” (H. Lundbeck A/S, priority 2017, dated 2020).

In one test the target is human D1 receptor (Homo sapiens (Human), UniProt P21728). The test is described as follows: Dopamine D1 receptor agonism, HTRF cAMP assay. It is filed as cell-based. Particulars: for Emax: normalized to 30 uM dopamine = 100%. Here is the method:
Dopamine D1 receptor agonism was measured using a HTRF cAMP from CisBio using the protocol developed by HD Biosciences (China). Briefly, the assay is a homogeneous time resolved-fluorescence resonance energy transfer (HTRF) assay that measures production of cAMP by cells in a competitive immunoassay between native cAMP produced by cells and cAMP-labeled with XL-665. A cryptate-labeled anti-cAMP antibody visualizes the tracer. The assay was performed in accordance with instructions from manufacturer.
Test compounds were added to wells of microplates (384 format). HEK-293 cells expressing the human D1 receptor were plated at 1000 cells/well and incubated 30 min at room temperature. cAMP-d2 tracer was added to wells and followed by addition of Anti-cAMP antibody-cryptate preparation and incubated for 1 h at room temperature in dark. HTRF cAMP was measured by excitation of the donor with 337 nm laser (the “TRF light unit”) and subsequent (delay time 100 microseconds) measurement of cryptate and d2 emission at 615 nm and 665 nm over a time window of 200 microseconds with a 2000 microseconds time window between repeats/100 flashes). HRTF measurements were performed on an Envision microplate reader (PerkinElmer). The HTRF signal was calculated as the emission-ratio at 665 nm over 615 nm. The HTRF ratio readout for test compounds was normalized to 0% and 100% stimulation using control wells with DMSO-solvent or 30 uM dopamine. Test compound potency (EC50) was estimated by nonlinear regression using the sigmoidal dose-response (variable slope) using Xlfit 4 (IDBS, Guildford, Surrey, UK, model 205). y=(A+((B−A)/(1+((C/x)^D)))) where y is the normalized HTRF ratio measurement for a given concentration of test compound, x is the concentration of test compound, A is the estimated efficacy at infinite compound dilution, and B is the maximal efficacy. C is the EC50 value and D is the Hill slope coefficient. EC50 estimates were obtained from an independent experiment and the logarithmic average was calculated. Dopamine D2 Receptor Agonism

For the next test, the system named is male CD rats. The test is described as follows: Rat locomotor activity (hyperactivity) assay, open field. It is filed as in vivo. Here is the method:
In total, 206 male CD rats (Charles River, Germany) weighing 200-250 grams (165-190 grams upon arrival) were used in the study. Animals were housed at a standard temperature (22±1° C.) and in a light-controlled environment (lights on from 7 am to […]) with ad libitum access to food and water. The experiment described below was performed in accordance with the standard operating procedures of Charles River Discovery Research Services Finland Ltd. and in accordance with the national Animal Experiment Board of Finland (Eläinkoelautakunta, ELLA) authority on animal testing.
The test device is a square Plexiglass-arena (measuring 40×40×40 cm), in which the movement paths of the rats are recorded by an activity monitor (Med. Associates Inc.). Before the test period is initiated, rats are habituated to their test cage for 60 minutes. Upon completion of habituation, animals were treated with either compound or vehicle and placed back into the open field apparatus. The main test parameter measured is ambulatory distance (recorded in 5 minute segments). Overall time of measurement after receiving initial treatment was 360 minutes. Total follow up period in the study was 420 min, including 60 min of habituation.

Chain of human D1 receptor (P21728 whole entry): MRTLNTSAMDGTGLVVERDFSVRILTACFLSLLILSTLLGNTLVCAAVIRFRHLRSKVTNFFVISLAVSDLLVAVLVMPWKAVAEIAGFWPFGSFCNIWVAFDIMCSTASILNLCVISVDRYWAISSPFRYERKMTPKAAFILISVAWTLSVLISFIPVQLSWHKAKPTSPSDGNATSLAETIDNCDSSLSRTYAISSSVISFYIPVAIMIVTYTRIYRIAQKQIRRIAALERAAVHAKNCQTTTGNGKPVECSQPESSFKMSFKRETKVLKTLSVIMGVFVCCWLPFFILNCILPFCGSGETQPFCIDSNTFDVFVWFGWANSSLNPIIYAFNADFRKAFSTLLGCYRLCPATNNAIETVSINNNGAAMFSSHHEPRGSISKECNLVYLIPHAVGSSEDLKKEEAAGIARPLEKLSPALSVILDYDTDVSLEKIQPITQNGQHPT

As a reminder, the Emax is the greatest response seen or fitted, relative to the assay's reference. As to `CCCN1CCC[C@@H]2Cc3c(ccc(O)c3O[C@@H]3O[C@H](C(=O)O)[C@@H](O)[C@H](O)[C@H]3O)C[C@H]21` [(Id-ia), (2S,3S,4S,5R,6S)-3,4,5-trihydroxy-6-(((4aR,10aR)-7-hydroxy-1-propyl-1,2,3,4,4a,5,10,10a-octahydrobenzo[g]quinolin-6-yl)oxy)tetrahydro-2H-pyran-2-carboxylic acid], the “in vitro dopaminergic activity (in words)” value on human D1 receptor (D1 and D2, example 2) was “no in vitro dopaminergic activity”. In addition, the Emax at human D1 receptor is 98%. The “relationship between behavioral effect and plasma concentrations” value with male CD rats ((Id-ia) 100 μg/kg p.o. (FIG. 5), apomorphine 3 mg/kg s.c. (FIG. 6)) was “correlate with the plasma concentrations of compound (I)”. For the same molecule, the “start of locomotor activity effect post-administration” value with male CD rats ((Id-ia) 10 to 300 μg/kg p.o., apomorphine 3 mg/kg s.c., pramipexole 0.3 mg/kg s.c.) was about 2 h. Moreover, the “total distance travelled vs vehicle” value with male CD rats (FIG. 4, (Id-ia) p.o., apomorphine 3 mg/kg s.c., pramipexole 0.3 mg/kg s.c.) is on record as “significantly increased activity”. In addition, in the test on male CD rats (apomorphine: post administration, pramipexole: after appearance of effect, (Id-ia): recording ended at 415-minute time point), the “time until locomotor effect is gone” value is recorded as “lasting until the end of recording”.
Usually EC50 stands for the concentration at which the effect is half-maximal. `CCCN1CCC[C@@H]2Cc3c(ccc(O)c3OS(=O)(=O)O)C[C@H]21` [(Id-iia), (4aR,10aR)-7-hydroxy-1-propyl-1,2,3,4,4a,5,10,10a-octahydrobenzo[g]quinolin-6-yl hydrogen sulfate] displayed a concentration giving a half-maximal response (EC50) on human D1 receptor (HEK-293 cells expressing human D1 receptor, cAMP) of over 30 µM. The molecule also showed an Emax at human D1 receptor of 49%.
